Laboratory results: PMC8910697, “Development of VPC-70619, a Small-Molecule N-Myc Inhibitor as a Potential Therapy for Neuroendocrine Prostate Cancer” (International Journal of Molecular Sciences, 2022)

Assays:
[1] = tested on: N-Myc-Max binding to DNA E-box; test: Biolayer interferometry (BLI), N-Myc-Max binding to biotinylated E-box DNA; type: biochemical; conditions: BLI, 0, 50, 100, 200 µM
Text: (§1) To confirm that 70619 could disrupt the binding of N-Myc-Max DBD to DNA, we performed a bio-layer interferometry (BLI) assay where we immobilized biotinylated E-box sequence on streptavidin sensors, and we evaluated recombinant N-Myc-Max binding to the DNA in the presence of increasing concentrations of VPC-70619. […] We observed a similar number of interactions when comparing the ratio of signal per nuclei in the presence or absence of the compound.
The bHLHLZ domain of N-Myc (amino acids 309–394) and Max (amino acids 12–93) protein sequences were cloned into pETDuet with an N-terminal 6×His. pETDuet-His-NMyc-Max was transformed and expressed in E. coli BL21 and induced with 0.5 mM isopropyl-β-D-thiogalactopyranoside (IPTG) at 16 °C overnight. The cultures were lysed by sonication and combined for purification by immobilized metal ion chromatography (IMAC) with nickel-nitrilotriacetic acid (Ni-NTA) resin. The bound proteins were eluted from the column with 20 mM Tris, pH = 8, 500 mM NaCl, 5% glycerol, 300 mM imidazole, 5 mM βMe, and 0.1 mM PMSF. Size exclusion chromatography with Superdex 75 was used to increase the purity of the N-Myc-Max protein sample. The purified protein complex was used in subsequent BLI and MST experiments.
Biotinylated-duplex DNA (Forward: 5′ Biotin-[…], Reverse: […]) was bound to the super-streptavidin (SSA) ForteBio Sensor in the assay buffer [20 mM Tris pH = 8, 150 mM NaCl, 5% glycerol, and 0.2 mM TCEP]. The protein solution was mixed with the serially diluted compound (70619) to a final concentration of 0.1 mg/mL of protein and 200 μM, 100 μM, and 50 μM for the compound. Sample containing N-Myc-Max protein alone was used as a control.

[2] = tested on: N-Myc-Max transcription activity (LNCaP-NMYC cells); test: Myc transcription assay (Cignal Myc reporter, luciferase) in LNCaP-NMYC cells; type: cell-based
In short: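 LNCaP-NMYC cells transfected with Cignal Myc luciferase reporter were treated 24 h with compounds at 5 µM or 10 µM. Read-out: inhibition of N-Myc-Max-driven reporter luminescence.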

IMR32 cells = test: Cell viability (CellTiter-Glo), IMR32; type: cell-based; conditions: Homo sapiens, IMR-32
Method: The 54 compounds were tested at 10 µM for their inhibition of the IMR32 human neuroblastoma cell line, in which the MYCN gene is amplified and actively expressed (Table 3). HO15.19 cell line (Myc-negative) was used in parallel as a compound specificity control.
Viability of N-Myc positive (IMR32and NCI-H660) and negative (HO15.19) cells were determined using the CellTiter-Glo Luminescent Cell Viability Assay (Promega cat. G7570) (Madison, WI, USA). Cells were seeded into a 96-well white plate with a clear bottom: 10,000 cells per well for the IMR32 cells cultured in EMEM supplemented with 10% FBS, 2000 HO15.19 cells per well in Eagle’s minimum essential medium (EMEM) supplemented with 10% FBS, and 2000 cells per well for the NCI-H660 neuroendocrine cells cultured in RPMI supplemented 5% FBS, 1% Insulin-Transferrin-Selenium (Thermo Fisher, 41400-045), 10nM b-estradiol (Sigma, E8875), 10nM hydrocortisone (Sigma H0888) and 1% matrigel. Following 24 h incubation, the cells were treated with serial dilutions of the derivatives along with the respective parental compound starting at 25 μM for 72 h. Cell Titer Glo was added to each well at a ratio of 1:1 and incubated on a shaker at RT for 2 min. Luminescence and IC50 was measured with the TECAN InfiniteM200 plate reader (Männedorf, Switzerland).

[3] = Microsomal stability assay; type: in vitro ADME, Mouse
Method: A microsomal stability assay was performed using the Corning Gentest NADPH Regenerating System (Corning, #451220/41200) (Corning, NY, USA). Mouse liver microsomes (MLM) (Xenotech, M1000) (Kansas City, KS, USA) and compounds were diluted to a final concentration of 0.15 mg/mL and 1 μM respectively. These were prepared into a 500 μL solution with 100 mM potassium phosphate buffer (pH = 7.4). Imipramine was used as a control. NADPH solutions A and B were mixed in a 5:1 ratio, and 24 μL of the NADPH was added to each of the MLM/compound samples at 30 s intervals. At time points 10, 20, and 45 min, 100 μL of reaction was added to the stopping solution. Samples were centrifuged at 18,000× g and incubated at 4 °C for 10 min. Samples were then loaded onto a LC-MS 96-well plate for analysis.

N-Myc-Max heterodimer = molecular target: T1, N-Myc-Max heterodimer (Homo sapiens, UniProt P04198+P61244); test: Proximity ligation assay (PLA) in LNCaP-NMYC cells; type: cell-based; conditions: 10 µM, 72 h
T1 construct: expressed in transfected cells; host or cells: LNCaP-NMYC cells (gift from David Rickman)
Method: as §1
LNCaP-NMYC cells were seeded on coverslips at a density of 10^5 cells per well of a 6-well plate. After incubation for 24 h the cells were treated with 10 μM of either 10074-G5 or 70619 for 72 h. The coverslips were fixed with methanol:acetone (3:1) and incubated with primary antibodies n-Myc Antibody (NMYC-1) (Novus Biologicals NB200-109) (Littleton, CO, USA) and MAX Antibody (C-17) (Santa Cruz sc-197) (Dallas, TX, USA) overnight at 4 °C. PLA was conducted using the Duolink In Situ Detection Reagents Red kit (Sigma DUO92008) according to the manufacturer’s protocol. The coverslips were then mounted on slides with VECTASHIELD mounting media with DAPI, and images were taken on ZEISS 780 confocal microscope at 40× magnification.

T1 sequence (P04198 whole entry): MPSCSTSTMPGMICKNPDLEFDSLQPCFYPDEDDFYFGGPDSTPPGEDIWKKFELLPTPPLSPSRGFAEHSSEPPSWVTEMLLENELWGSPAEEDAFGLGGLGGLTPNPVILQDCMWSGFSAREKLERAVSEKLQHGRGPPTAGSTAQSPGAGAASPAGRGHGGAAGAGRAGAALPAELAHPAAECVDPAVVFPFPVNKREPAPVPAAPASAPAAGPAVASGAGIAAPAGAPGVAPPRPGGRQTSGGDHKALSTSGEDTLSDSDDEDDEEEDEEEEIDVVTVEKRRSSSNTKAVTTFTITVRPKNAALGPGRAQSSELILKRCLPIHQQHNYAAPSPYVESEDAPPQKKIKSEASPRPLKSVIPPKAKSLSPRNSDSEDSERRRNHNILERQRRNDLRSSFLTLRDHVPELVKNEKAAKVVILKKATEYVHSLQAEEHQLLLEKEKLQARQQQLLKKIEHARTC
T1 sequence (P61244 whole entry): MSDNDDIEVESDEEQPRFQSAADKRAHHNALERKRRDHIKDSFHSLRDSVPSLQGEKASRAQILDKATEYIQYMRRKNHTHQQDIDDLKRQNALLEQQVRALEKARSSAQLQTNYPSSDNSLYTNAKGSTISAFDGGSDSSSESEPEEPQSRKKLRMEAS

In the case of `N#Cc1ccc(NNC(=O)c2ccc(C#N)c(Cl)c2)c(C(F)(F)F)c1` [compound 70619], the “disruption of DNA binding to (N-)Myc-Max (in words)” value [1] is reported as “disrupt DNA binding at 100 µM”, the “disruption of DNA binding to (N-)Myc-Max (in words)” value ([1]; listed as VPC-70619) is reported as “effective at blocking N-Myc-Max binding to DNA in a dose-dependent manner” and the IC50 ([2]; 24 h, treatment for 1 day, 0–25 µM, read-out: IC50 in the luciferase transcription inhibition assay) is reported as 4.3 µM. The “transcription inhibition activity at 5 µM (in words)” value ([2]; LNCaP-NMYC, 5 µM) was “restoring the inhibitory activity”, the inhibition at 10 µM (IMR32 cells) was 99.4% and the “increase in microsomal stability compared to VPC-70551” value ([3]; half-life 2310 min vs 140 min) was 15 fold. The half-life at 1 μM ([3]; mouse, mouse liver microsomes, pH 7.4, mouse liver microsomes, 1 µM compound, read-out: microsomal half-life (T1/2)) was 38.5 h, the “effect on N-Myc-Max heterodimer interactions (in words)” value (N-Myc-Max heterodimer) was “does not disrupt Myc-Max complexes” and the “effect on N-Myc-Max heterodimer interactions (in words)” value (N-Myc-Max heterodimer; listed as VPC-70619) was “does not disrupt the N-Myc-Max heterodimer formation”.
